Results published in patent US11433031B2, “Method for manufacturing acetaminophen preparation” (NIPPON ZOKI PHARMACEUTICAL CO., LTD., priority 2016, dated 2022).
Where two headings read alike, the source gives them in different places.

How the values were obtained:
[1] = data of another company, different apparatus and conditions; cited from earlier work
[2] = Particle size distribution by laser-diffraction method (Mastersizer 2000, dry mode); format: physicochemical; conditions: dispersion air pressure 2 Bar, volume conversion
Text: The acetaminophen to be used in the manufacturing method of the present invention (also referred to as “the present acetaminophen”) has a particle size distribution such that d10 is generally 5 to 300 μm, preferably 10 to 200 μm, more preferably 15 to 100 μm, and d90 is generally 200 to 900 μm, preferably 250 to 800 μm, more preferably 300 to 700 μm. Although there are some differences in the particle size distribution among lots, the unpulverized acetaminophen generally has the above-specified particle size distribution. In contrast, although there are some differences in the particle size distribution of a pulverized product of acetaminophen among the manufacturers of the drug substance and production lots, the particle size distribution of a pulverized product of acetaminophen is generally such that the d10 is 3 to 10 μm and d90 is 100 to 250 μm, and therefore the particle diameters of the pulverized product of acetaminophen are smaller compared with those of the present acetaminophen. In the present invention, the particle size distribution is determined by a volume distribution evaluation employing a laser-diffraction scattering method (Mastersizer 2000: Malvern), and the terms “d10”, “d50”, and “d90” refer to particle diameters at a volume cumulative 10% point, a volume cumulative 50% point, and a volume cumulative 90% point, respectively, as observed from the smaller diameter side in the particle size distribution.
Each of unpulverized products of acetaminophen (lots A to D) and a pulverized product of acetaminophen (lot P) was subjected to a particle size distribution measurement using a particle measurement method (a dry mode measurement) by a laser-diffraction method. As a machine, a dry automated dispersion unit microtray (Mastersizer 2000, Malvern) was used, the dispersion compression air pressure was 2 Bar, and the analysis of particle size distribution was performed by a volume conversion method. The results of lots E, F, Q, and R are data which were obtained by another company using a different measurement apparatus under different measurement conditions from those employed in the test of the present invention. As shown in the results of Table 1, difference may sometimes occur depending on the measurement conditions and measurement apparatuses used in the measurement of particle size distribution.

Compound | D10 [2] | D90 [2] | D10 [1] | D90 [1]
CC(=O)Nc1ccc(O)cc1 [Lot Q, acetaminophen] |  |  | 5.8 μm | 104 μm
CC(=O)Nc1ccc(O)cc1 [Lot F, acetaminophen] |  |  | 220 μm | 663 μm
CC(=O)Nc1ccc(O)cc1 [Lot E, acetaminophen] |  |  | 93 μm | 559 μm
CC(=O)Nc1ccc(O)cc1 [Lot R, acetaminophen] |  |  | 9.7 μm | 192 μm

Now from value to molecule, other results behind:

D10 [2] | D90 [2] | Compound | D10 [1] | D90 [1]
26 μm | 419 μm | CC(=O)Nc1ccc(O)cc1 [Lot C, acetaminophen] |  | 
20 μm | 320 μm | CC(=O)Nc1ccc(O)cc1 [Lot A, acetaminophen] |  | 
30 μm | 551 μm | CC(=O)Nc1ccc(O)cc1 [Lot B, acetaminophen] |  | 
20 μm | 464 μm | CC(=O)Nc1ccc(O)cc1 [Lot D, acetaminophen] |  | 
3.7 μm | 166 μm | CC(=O)Nc1ccc(O)cc1 [Lot P, acetaminophen] |  | 
